Results reported in ChEMBL document CHEMBL1221212, “Small-molecule activation of neuronal cell fate” (Nat Chem Biol, 2008).
Calls of active or inactive are those of the source. The calls are words filed in the database; no cut-off is given here.

Assays:
HCN [1] = test: Induction of rat HCN cell differentiation assessed as induction of neuronal reporter neuroD activity at 20 uM after 24 hrs by luciferase reporter gene assay; assay type: functional, cell-based
HCN [2] = test: Induction of rat HCN cell differentiation assessed as induction of neuronal reporter neuroD activity by luciferase reporter gene assay; assay type: functional, cell-based

Structure (SMILES) | Activity (HCN [1]) | Activity (HCN [2])
O=C(NC1CCCCC1)c1cc(-c2cccs2)on1 | Active | –
Cc1cc(C(=O)Nc2sc3c(c2C#N)CCCC3)no1 | – | Dose-dependent effect
O=C(NC1CCCC1)c1cc(-c2cccs2)on1 | Active | Dose-dependent effect
CNC(=O)c1cc(-c2cccs2)on1 | Active | –
